For one assay, the system named is HCT116 MTAP null cells. As to the kind of experiment: HCT116 MTAP null cell line proliferation / cell viability (CellTiter-Glo, 6 days). The format is cell-based. The note with it: HCT116 MTAP null cells, 6 days treatment, CellTiter-Glo cell viability, read-out: HCT-116 MTAP null IC50. The essentials: (§1)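 WT vs MTAP-null HCT116, 6 d drug, CTG readout. 1:3 × 8–9 pts (top 1/10 μM) or 1:2 × 22 pts (top 10/50 μM). IC50 by 4PL or Hill −1 fit.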
On the technique in general: In ATP-based viability assays light output follows the ATP content of the culture.

For the next assay, the system named is HCT116 WT cells. As to the kind of experiment: HCT116 WT (parent) cell line proliferation / cell viability (CellTiter-Glo, 6 days). The format is cell-based. The note with it: 6 days treatment. The essentials:
as §1

Results on 17 compounds are retold here after patent publication US20240124442A1, “TRICYCLIC-AMIDO-BICYCLIC PRMT5 INHIBITORS” (AMGEN INC., priority 2021, published 2024).

The structures appear in SMILES notation. Where two headings read alike, the source gives them in different places.

On to `CN(C(=O)c1ccc2nc(N)c3c(c2c1)COC3)[C@H]1COc2cc([N+](=O)[O-])ccc21` (single isomer, unassigned) [Example 320], for which the values for the IC50 with HCT116 MTAP null cells and in the assay with HCT116 WT cells (read-out: HCT-116 WT IC50) were 3.67 µM and 36.5 µM, respectively.
On to `[2H]C([2H])([2H])N(C(=O)c1ccc2nc(N)c3c(c2c1)COC3)[C@H]1COc2cc(C(F)(F)F)ccc21` (single isomer, unassigned) [Example 321], for which the IC50 (in general, the midpoint of a concentration-inhibition curve) in the assay with HCT116 MTAP null cells (144 h) worked out at 2.66 µM; with HCT116 WT cells (Homo sapiens, HCT-116, 144 h) it was 20.1 µM.
Turning to `[2H]C([2H])([2H])N(C(=O)c1ccc2nc(N)c3c(c2c1)COC3)[C@@H]1COc2cc(C(F)(F)F)ccc21` (single isomer, unassigned) [Example 322], the IC50 was determined as 0.041 µM in the assay on HCT116 MTAP null cells (144 h) and 1.39 µM in the assay on HCT116 WT cells (Homo sapiens, HCT-116, 144 h).
For `CN(C(=O)c1ccc2nc(N)c3c(c2c1)COC3)[C@@H]1COc2cc(S(C)(=O)=O)ccc21` (single isomer, unassigned) [Example 323], the IC50 in the assay on HCT116 MTAP null cells (144 h) came out at 0.076 µM; in the assay with HCT116 WT cells (Homo sapiens, HCT-116, 144 h) it was 3.45 µM.
The corresponding values for `CN(C(=O)c1ccc2nc(N)c3c(c2c1)COC3)[C@H]1COc2cc(S(C)(=O)=O)ccc21` (single isomer, unassigned) [Example 324] are 5.32 µM and 50 µM.
The corresponding values for `CN(C(=O)c1ccc2nc(N)c3c(c2c1)COC3)[C@@H]1COc2cc(C(F)(F)F)cc(F)c21` (single isomer, unassigned) [Example 325] are 0.068 µM and 4.16 µM.
The corresponding values for `CN(C(=O)c1ccc2nc(N)c3c(c2c1)COC3)[C@H]1COc2cc(C(F)(F)F)cc(F)c21` (single isomer, unassigned) [Example 326] are 1.79 µM and 20.6 µM.
Turning to `CN(C(=O)c1ccc2nc(N)c3c(c2c1)COC3)[C@@H]1COc2cc(S(F)(F)(F)(F)F)ccc21` (single isomer, unassigned) [Example 327], the IC50 in the assay with HCT116 MTAP null cells (144 h) turned out to be 0.011 µM; with HCT116 WT cells (Homo sapiens, HCT-116, 144 h), 0.457 µM.
The like results for `CN(C(=O)c1ccc2nc(N)c3c(c2c1)COC3)[C@H]1COc2cc(S(F)(F)(F)(F)F)ccc21` (single isomer, unassigned) [Example 328] were, in that order, 2.16 µM and 10.1 µM.
Regarding `CN(C(=O)c1ccc2nc(N)c3c(c2c1)COC3)[C@@H]1COc2cc(Br)ccc21` (single isomer, unassigned) [Example 329], the IC50 in the assay on HCT116 MTAP null cells (144 h) is 0.046 µM; in the assay with HCT116 WT cells (Homo sapiens, HCT-116, 144 h) it was 1.82 µM.
The corresponding values for `CN(C(=O)c1ccc2nc(N)c3c(c2c1)COC3)[C@H]1COc2cc(Br)ccc21` (single isomer, unassigned) [Example 330] are 1.61 µM and 22.9 µM.
The like results for `C[C@H]1OCc2c1c(N)nc1ccc(C(=O)N(C)[C@@H]3COc4cc(Br)ccc43)cc21` (single isomer, unassigned) [Example 331] were, in that order, 0.026 µM and 2.24 µM.
The like results for `C[C@H]1OCc2c1c(N)nc1ccc(C(=O)N(C)[C@H]3COc4cc(Br)ccc43)cc21` (single isomer, unassigned) [Example 332] were, in that order, 0.92 µM and 22.3 µM.
As to `CN(C(=O)c1cc2c3c(c(N)nc2cn1)COC3)[C@@H]1COc2cc(Cl)ccc21` (single isomer, unassigned) [Example 333], the IC50 with HCT116 MTAP null cells (144 h) worked out at 0.173 µM; in the assay with HCT116 WT cells (Homo sapiens, HCT-116, 144 h) it was 8.48 µM.
Consider `CN(C(=O)c1cc2c3c(c(N)nc2cn1)COC3)[C@H]1COc2cc(Cl)ccc21` (single isomer, unassigned) [Example 334], for which the IC50 with HCT116 MTAP null cells (144 h) turned out to be 11.9 µM; in the assay on HCT116 WT cells (Homo sapiens, HCT-116, 144 h) it was 50 µM.
The corresponding values for `CN(C(=O)c1cc2c3c(c(N)nc2cn1)COC3)[C@@H]1COc2nc(C(F)(F)F)ccc21` (single isomer, unassigned) [Example 335] are 0.272 µM and 10.9 µM.
The like results for `CN(C(=O)c1cc2c3c(c(N)nc2cn1)COC3)[C@H]1COc2nc(C(F)(F)F)ccc21` (single isomer, unassigned) [Example 336] were, in that order, 11.9 µM and 50 µM.
